Laboratory results taken from patent US10519211B2, “Compounds as peptidic GLP1/glucagon/GIP receptor agonists” (SANOFI, priority 2016, dated 2019).
Numbered stars: 1 amine (or outer) side, 2 acyl side, 3 side chain; on linkers, the order of the positions; unused ones are H or OH. Square brackets hold non-standard residues; d marks the D form. Side chains are listed from the residue outwards. Peptide text beside a SMILES is read from it. * marks the point of attachment. Adipoyl(4R-palmitoylamino) = CCCCCCCCCCCCCCCC(=O)N[C@H](CCC(=O)*)CC(=O)O; γGlu = O=C(O)[C@H](CCC(=O)[*:2])N[*:1]; Palmitoyl = CCCCCCCCCCCCCCCC(=O)*; AEEA = NCCOCCOCC(=O)O; Aib = CC(C)(N)C(=O)O

Tests used:
Type in all cases: physicochemical
[1] = Thioflavin T (ThT) assay for physical stability (fibrillation); details: 3 mg/ml, 100 mM acetate pH 4.5 with m-cresol, shaking at 37° C.
Procedure: Investigations were carried out to determine fibrillation tendencies under stress conditions by shaking at 37° C. within Fluoroskan Ascent FL.
For the tests in Fluoroskan Ascent FL, 200 μL sample were placed into a 96 well mictrotiter plate PS, flat bottom, Greiner Fluotrac No. 655076. Plates were sealed with Scotch Tape (Quiagen). Samples were stressed by continuous cycles of 10 s shaking at 960 rpm and 50 s rest period at 37° C. The kinetic was monitored by measuring fluorescence intensity every 20 minutes.
Peptides were diluted in a buffer system to a final concentration of 3 mg/ml. 20 μL of a 10.1 mM ThT solution in H2O were added to 2 mL of peptide solution to receive a final concentration of 100 μM ThT. For each sample eight replicates were tested.
Tht buffer system A) 100 mM Acetate pH 4.5 including m-cresol (100 mM Natriumacetat trihydrat, pH adjustment using 2N CH3COOH, 2.7 mg/mL m-cresol) Tht buffer system B) 100 mM citrate buffer pH 6.0
Lag time in hours in Thioflavin T (ThT) assay of peptide samples was determined in Tht buffer system A as described in Methods.

[2] = Chemical stability assessment (UPLC-UV, relative purity loss); details: 1 mg/ml, 25 mM acetate buffer pH 4.5 with m-cresol (buffer system A)
Procedure: Prior to the chemical stability measurement of a peptide batch, its purity was determined through UPLC/MS. For stability testing the target concentration was 1 mg pure compound/ml. Therefore solutions from solid samples were prepared in a buffer system with a concentration of 1 mg/mL compound based on the previously determined % purity:
Chemical stability buffer system A) 25 mM acetate buffer pH4.5, 3 mg/mL L-Methionine, 2.7 mg/mL m-cresol, 18 mg/mL Glycerol 85%
Peptide solutions were filtered through […] pore size and filled into aliquots under aseptic conditions. At starting point UPLC-UV was performed by injection of 2 μl of the undiluted sample.
For chemical stability testing, aliquots were stored for 28 days at Sand 40° C. After this time course the samples were centrifuged for 15 min at 2500 RCF. Then 2 μl of the undiluted supernatant were analysed with UPLC-UV.
The chemical stability was rated through the relative loss of purity calculated by the equation: [(purity at starting point)−(purity after 28 days at X° C.)]/(purity at starting point)]*100%
The purity is calculated as [(peak area peptide)/(total peak area)]*100%
Peptide samples were prepared in Chemical stability buffer system A and chemical stability was assessed as described in Methods.

[3] = Solubility assessment (UPLC-UV); details: acetate buffer pH 4.5, 2.7 mg/ml m-cresol (buffer system A), target 10 mg/ml
Procedure: Prior to the solubility measurement of a peptide batch, its purity was determined through UPLC/MS.
Therefore solutions from solid samples were prepared in a buffer systems with a concentration of 10 mg/mL compound based on the previously determined % purity:
Solubility buffer system A) Acetate Buffer pH 4.5, 100 mM sodium acetate trihydrate, 2.7 mg/ml m-Cresol
UPLC-UV was performed after 1 hour of gentle agitation from the supernatant, which was obtained after 15 min of centrifugation at 2500 RCF (relative centrifugal acceleration).
The solubility was determined by the comparison of the UV peak area of 2 μL-injection of a buffered sample diluted 1:10 with a standard curve of a reference peptide with known concentration. The different UV extinction coefficients of sample and reference peptide were calculated based on the different amino acid sequences and considered in the concentration calculation.
Peptide samples were prepared in solubility buffer system A and solubility was assessed as described in Methods.

| Compound | Lag time before increase [1] | Chemical stability [relative purity loss 28 days 40° C.] (%) at pH 4.5 [2] | solubility at 1 h [3] |
| --- | --- | --- | --- |
| CCCCCCCCCCCCCCCC(=O)N[C@H](CCC(=O)NCCOCCOCC(=O)N[C@@H](CCC(=O)NCCCC[C@H](NC(=O)[C@H](CC(C)C)NC(=O)[C@H](CCCCN)NC(=O)[C@H](CO)NC(=O)[C@H](CC(C)C)NC(=O)[C@H](CC(=O)O)NC(=O)[C@H](CO)NC(=O)[C@@H](NC(=O)[C@H](Cc1ccccc1)NC(=O)[C@@H](NC(=O)CNC(=O)[C@H](CCC(N)=O)NC(=O)C(C)(C)NC(=O)[C@@H](N)Cc1c[nH]cn1)[C@@H](C)O)[C@@H](C)O)C(=O)N[C@@H](CCC(=O)O)C(=O)N[C@@H](CCCCN)C(=O)N[C@@H](CCC(N)=O)C(=O)N[C@@H](CCCNC(=N)N)C(=O)N[C@@H](CCC(N)=O)C(=O)NC(C)(C)C(=O)N[C@@H](CCC(=O)O)C(=O)N[C@@H](Cc1ccccc1)C(=O)N[C@H](C(=O)N[C@@H](CCC(=O)O)C(=O)N[C@@H](Cc1c[nH]c2ccccc12)C(=O)N[C@@H](CC(C)C)C(=O)N[C@@H](CCCCN)C(=O)N[C@@H](C)C(=O)N[C@H](C)C(=O)NCC(=O)N[C@@H](Cc1c[nH]cn1)C(=O)N1CCC[C@H]1C(=O)N[C@@H](CO)C(=O)NC(C)(C)C(=O)N[C@@H](CCCCN)C(=O)N1CCC[C@H]1C(=O)N1CCC[C@H]1C(=O)N1CCC[C@H]1C(=O)N[C@@H](CCCCN)C(N)=O)[C@@H](C)CC)C(=O)O)CC(=O)O [SEQ ID NO: 21, H-Aib-Q-G-T-F-T-S-D-L-S-K-L-K[gGlu-AEEA-gAAA-Palm]-E-K-Q-R-Q-Aib-E-F-I-E-W-L-K-A-dAla-G-H-P-S-Aib-K-P-P-P-K-NH2] (H-H[Aib]QGTFTSDLSKLK([γGlu-AEEA-Adipoyl(4R-palmitoylamino)])EKQRQ[Aib]EFIEWLKA[dA]GHPS[Aib]KPPPK-NH2) | >45 h | – | – |
| CCCCCCCCCCCCCCCC(=O)N[C@H](CCC(=O)NCCOCCOCC(=O)N[C@@H](CCC(=O)NCCCC[C@H](NC(=O)[C@H](CC(C)C)NC(=O)[C@H](CCCCN)NC(=O)[C@H](CO)NC(=O)[C@H](CC(C)C)NC(=O)[C@H](CC(=O)O)NC(=O)[C@H](CO)NC(=O)[C@@H](NC(=O)[C@H](Cc1ccccc1)NC(=O)[C@@H](NC(=O)CNC(=O)[C@H](CCC(N)=O)NC(=O)C(C)(C)NC(=O)[C@@H](N)Cc1c[nH]cn1)[C@@H](C)O)[C@@H](C)O)C(=O)N[C@@H](CCC(=O)O)C(=O)N[C@@H](CCC(=O)O)C(=O)N[C@@H](CCC(N)=O)C(=O)N[C@@H](CCCNC(=N)N)C(=O)N[C@@H](CCC(N)=O)C(=O)NC(C)(C)C(=O)N[C@@H](CCC(=O)O)C(=O)N[C@@H](Cc1ccccc1)C(=O)N[C@H](C(=O)N[C@@H](CCC(=O)O)C(=O)N[C@@H](Cc1c[nH]c2ccccc12)C(=O)N[C@@H](CC(C)C)C(=O)N[C@@H](CCCCN)C(=O)N[C@@H](C)C(=O)NCC(=O)NCC(=O)N[C@@H](Cc1c[nH]cn1)C(=O)N1CCC[C@H]1C(=O)N[C@@H](CO)C(=O)NC(C)(C)C(=O)N[C@@H](CCCCN)C(=O)N1CCC[C@H]1C(=O)N1CCC[C@H]1C(=O)N1CCC[C@H]1C(=O)N[C@@H](CCCCN)C(N)=O)[C@@H](C)CC)C(=O)O)CC(=O)O [SEQ ID NO: 22, H-Aib-Q-G-T-F-T-S-D-L-S-K-L-K[gGlu-AEEA-gAAA-Palm]-E-E-Q-R-Q-Aib-E-F-I-E-W-L-K-A-G-G-H-P-S-Aib-K-P-P-P-K-NH2] (H-H[Aib]QGTFTSDLSKLK([γGlu-AEEA-Adipoyl(4R-palmitoylamino)])EEQRQ[Aib]EFIEWLKAGGHPS[Aib]KPPPK-NH2) | >45 h | – | – |
| CCCCCCCCCCCCCCCC(=O)NCCOCCOCC(=O)N[C@@H](CCC(=O)N[C@@H](CCC(=O)NCCCC[C@H](NC(=O)[C@H](CC(C)C)NC(=O)[C@H](CCCCN)NC(=O)[C@H](CO)NC(=O)[C@H](CC(C)C)NC(=O)[C@H](CC(=O)O)NC(=O)[C@H](CO)NC(=O)[C@@H](NC(=O)[C@H](Cc1ccccc1)NC(=O)[C@@H](NC(=O)CNC(=O)[C@H](CCC(N)=O)NC(=O)C(C)(C)NC(=O)[C@@H](N)Cc1c[nH]cn1)[C@@H](C)O)[C@@H](C)O)C(=O)N[C@@H](CCC(=O)O)C(=O)N[C@@H](CCCCN)C(=O)N[C@@H](CCC(N)=O)C(=O)N[C@@H](CCCNC(=N)N)C(=O)N[C@@H](CCC(N)=O)C(=O)NC(C)(C)C(=O)N[C@@H](CCC(=O)O)C(=O)N[C@@H](Cc1ccccc1)C(=O)N[C@H](C(=O)N[C@@H](CCC(=O)O)C(=O)N[C@@H](Cc1c[nH]c2ccccc12)C(=O)N[C@@H](CC(C)C)C(=O)N[C@@H](CCCCN)C(=O)N[C@@H](C)C(=O)NCC(=O)NCC(=O)N[C@@H](Cc1c[nH]cn1)C(=O)N1CCC[C@H]1C(=O)N[C@@H](CO)C(=O)NC(C)(C)C(=O)N[C@@H](CCCCN)C(=O)N1CCC[C@H]1C(=O)N1CCC[C@H]1C(=O)N1CCC[C@H]1C(=O)N[C@@H](CCCCN)C(N)=O)[C@@H](C)CC)C(=O)O)C(=O)O [SEQ ID NO: 16, H-Aib-Q-G-T-F-T-S-D-L-S-K-L-K[gGlu-gGlu-AEEA-Palm]-E-K-Q-R-Q-Aib-E-F-I-E-W-L-K-A-G-G-H-P-S-Aib-K-P-P-P-K-NH2] (H-H[Aib]QGTFTSDLSKLK([γGlu-γGlu-AEEA-Palmitoyl])EKQRQ[Aib]EFIEWLKAGGHPS[Aib]KPPPK-NH2) | >45 h | – | – |
| CCCCCCCCCCCCCCCC(=O)N[C@@H](CCC(=O)N[C@@H](CCC(=O)NCCCC[C@H](NC(=O)[C@H](CC(C)C)NC(=O)[C@H](CCCCN)NC(=O)[C@H](CO)NC(=O)[C@H](CC(C)C)NC(=O)[C@H](CC(=O)O)NC(=O)[C@H](CO)NC(=O)[C@@H](NC(=O)[C@H](Cc1ccccc1)NC(=O)[C@@H](NC(=O)CNC(=O)[C@H](CCC(N)=O)NC(=O)C(C)(C)NC(=O)[C@@H](N)Cc1c[nH]cn1)[C@@H](C)O)[C@@H](C)O)C(=O)N[C@@H](CCC(=O)O)C(=O)N[C@@H](CCC(=O)O)C(=O)N[C@@H](CCC(N)=O)C(=O)N[C@@H](CCCNC(=N)N)C(=O)N[C@@H](CCC(N)=O)C(=O)NC(C)(C)C(=O)N[C@@H](CCC(=O)O)C(=O)N[C@@H](Cc1ccccc1)C(=O)N[C@H](C(=O)N[C@@H](CCC(=O)O)C(=O)N[C@@H](Cc1c[nH]c2ccccc12)C(=O)N[C@@H](CC(C)C)C(=O)N[C@@H](CCCCN)C(=O)N[C@@H](C)C(=O)N[C@H](C)C(=O)NCC(=O)N[C@@H](Cc1c[nH]cn1)C(=O)N1CCC[C@H]1C(=O)N[C@@H](CO)C(=O)NC(C)(C)C(=O)N[C@@H](CCCCN)C(=O)N1CCC[C@H]1C(=O)N1CCC[C@H]1C(=O)N1CCC[C@H]1C(=O)N[C@@H](CCCCN)C(N)=O)[C@@H](C)CC)C(=O)O)C(=O)O [SEQ ID NO: 11, H-Aib-Q-G-T-F-T-S-D-L-S-K-L-K[gGlu-gGlu-Palm]-E-E-Q-R-Q-Aib-E-F-I-E-W-L-K-A-dAla-G-H-P-S-Aib-K-P-P-P-K-NH2] (H-H[Aib]QGTFTSDLSKLK([γGlu-γGlu-Palmitoyl])EEQRQ[Aib]EFIEWLKA[dA]GHPS[Aib]KPPPK-NH2) | >45 h | 7.2% | > 9900 µg/mL |
